These results are taken from patent US7589123B2, “Chemical compounds” (Phytopharm PLC, priority 2006, dated 2009).

Data set [1] deals with T1, TRPV1 receptor (Rattus norvegicus, UniProt O35433). The data set is described as follows: TRPV1 receptor modulation in the rat vas deferens, EFS-induced contraction (Assay 1). The following applies: electrical field stimulation, read-out: Inhibition of EFS response relative to capsaicin. How it is done: Wistar derived male rats (275±25 g) were suppressed by CO2 overexposure. The vas deferens was removed, placed in Krebs solution, pH 7.4 (composition in g/l: NaCl 6.89, KCl 0.35, CaCl2 0.277, KH2PO4 0.163, MgSO4.7H2O 0.296, NaHCO3 2.1 glucose 1.8) and excess fat and connective tissue removed. The portion of the vas deferens closest to the prostate was cut in half and each half was placed under 1 g tension in a 10 ml bath containing Krebs solution at 32° C. The tissue was contracted by electrical field stimulation (EFS; 60% of maximum stimulation, 0.015 Hz, 0.5 ms in duration) and contractile responses were measured.
T1 sequence (O35433 whole entry): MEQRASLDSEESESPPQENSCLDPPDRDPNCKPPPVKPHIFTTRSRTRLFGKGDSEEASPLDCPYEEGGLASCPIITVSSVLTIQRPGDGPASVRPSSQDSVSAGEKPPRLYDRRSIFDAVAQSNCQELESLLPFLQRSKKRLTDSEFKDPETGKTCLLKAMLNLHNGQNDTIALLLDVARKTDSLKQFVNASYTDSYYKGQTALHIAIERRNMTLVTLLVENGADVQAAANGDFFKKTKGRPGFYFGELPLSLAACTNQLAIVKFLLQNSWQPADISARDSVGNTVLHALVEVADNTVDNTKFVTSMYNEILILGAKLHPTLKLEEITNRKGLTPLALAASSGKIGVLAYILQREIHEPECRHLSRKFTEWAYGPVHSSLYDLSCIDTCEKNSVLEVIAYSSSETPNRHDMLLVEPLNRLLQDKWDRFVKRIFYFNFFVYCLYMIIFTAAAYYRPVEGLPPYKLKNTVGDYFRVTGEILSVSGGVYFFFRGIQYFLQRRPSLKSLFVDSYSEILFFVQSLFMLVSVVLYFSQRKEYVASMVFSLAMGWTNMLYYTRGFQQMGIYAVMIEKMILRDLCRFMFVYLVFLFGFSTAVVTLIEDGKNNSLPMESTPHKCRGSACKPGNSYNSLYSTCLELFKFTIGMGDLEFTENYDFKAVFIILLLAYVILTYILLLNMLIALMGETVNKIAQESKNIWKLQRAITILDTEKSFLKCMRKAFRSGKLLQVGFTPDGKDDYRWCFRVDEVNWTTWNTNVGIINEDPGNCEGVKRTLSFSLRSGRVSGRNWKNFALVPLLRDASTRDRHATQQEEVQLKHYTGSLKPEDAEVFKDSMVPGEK

Data set [2] relates to histamine-induced contractions in guinea pig ileum. Kind of data set: Inhibition of histamine-induced contractions in guinea pig ileum (Assay 3). The following applies: Cavia porcellus, histamine 1.7 μM, read-out: Inhibition of histamine-induced contraction (%). In outline:
(§1)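 Ileal strips from male Duncan Hartley guinea pigs were held at 1 g tension in 32° C oxygenated Krebs (pH 7.4) with isotonic transducers. After control contractions to 5-HT (2.6 μM) or histamine (1.7 μM), compound at 3 and 30 μM was added, its own effect noted, and agonist re-applied.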

For data set [3], the system named is 5-HT-induced contractions in guinea pig ileum. The data set is described as follows: Inhibition of 5-HT-induced contractions in guinea pig ileum (Assay 3). The following applies: Cavia porcellus, 5-HT 2.6 μM, read-out: Inhibition of 5-HT-induced contraction (%). In outline:
as §1

Data set [4] relates to α-smooth muscle actin (α-SMA) mRNA. The data set is described as follows: Anti-remodelling activity in human lung fibroblasts (HFL1): TGFβ-induced α-SMA mRNA (Assay 4). The note with it: Homo sapiens, HFL1 cells, TGFβ 10 ng/ml, 24 h, read-out: Inhibition of α-SMA mRNA synthesis (%). Format: cell-based. In outline: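 Real-time RT-PCR of α-SMA mRNA, GAPDH as reference, measured after 24 h exposure of low-serum-primed HFL1 cells to 10 ng/ml TGFβ with test compounds (3 and 30 μM) in 10% FBS medium. Readout is inhibition of TGFβ-driven α-SMA mRNA overexpression.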

Data set [5] concerns IL-1α-induced PGE2 release. Kind of data set: IL-1α-induced PGE2 release in human diploid lung fibroblasts (WI-38) (Assay 5). The note with it: Homo sapiens, WI-38 cells, IL-1α 1 nM, overnight. Format: cell-based. The essentials:
(§2)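 Cell viability was read by Alamar Blue fluorescence (530/590 nm) after 4 h at 37 °C, following an overnight 37 °C incubation of human lung fibroblasts with 1 nM IL-1α and compound (3 or 30 μM) in 10% FBS MEM, pH 7.3. Supernatant PGE2 was measured by radioimmunoassay to derive percent inhibition.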

A further data set deals with WI-38 cells. Kind of data set: Viability of WI-38 cells, Alamar Blue (Assay 5). Format: cell-based, human. In outline:
as §2

The target in a further data set is T2, 5-lipoxygenase (Homo sapiens, UniProt P09917).
T2 construct: endogenous in cells; host or cells: human peripheral blood mononuclear leukocytes (PBMLs)
T2 sequence (P09917 1-674): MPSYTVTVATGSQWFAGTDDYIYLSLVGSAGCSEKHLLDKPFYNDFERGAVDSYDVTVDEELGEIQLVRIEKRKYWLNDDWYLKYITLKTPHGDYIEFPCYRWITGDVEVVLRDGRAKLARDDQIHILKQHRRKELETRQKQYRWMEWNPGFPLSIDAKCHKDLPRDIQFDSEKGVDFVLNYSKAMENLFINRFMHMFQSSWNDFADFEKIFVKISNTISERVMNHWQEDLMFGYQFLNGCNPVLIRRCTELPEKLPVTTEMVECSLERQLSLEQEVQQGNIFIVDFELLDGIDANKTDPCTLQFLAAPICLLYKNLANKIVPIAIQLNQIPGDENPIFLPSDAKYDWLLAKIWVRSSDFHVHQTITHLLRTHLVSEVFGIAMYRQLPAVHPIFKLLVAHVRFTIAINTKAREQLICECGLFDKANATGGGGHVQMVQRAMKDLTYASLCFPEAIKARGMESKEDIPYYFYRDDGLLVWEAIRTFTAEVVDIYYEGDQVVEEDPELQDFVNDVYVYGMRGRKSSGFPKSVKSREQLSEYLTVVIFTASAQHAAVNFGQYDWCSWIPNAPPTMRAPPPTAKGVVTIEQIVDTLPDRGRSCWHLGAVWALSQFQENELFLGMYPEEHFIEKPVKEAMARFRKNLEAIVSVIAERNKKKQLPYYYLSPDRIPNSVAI
Kind of data set: 5-lipoxygenase activity (LTB4) in human peripheral blood mononuclear leukocytes (Assay 6). Format: cell-based. The note with it: human PBMLs, A23187 30 μM, read-out: Inhibition of 5-LO (%). In outline:
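LTB4 in supernatant quantified by EIA after 15 min at 37° C. in HBSS, pH 7.4, where Ficoll-isolated human PBMLs (5×10^6) received ionophore A23187 (30 μM) and test compound (3 and 30 μM) or 0.1% DMSO vehicle.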

Data set [6] addresses T1, TRPV1 receptor. Kind of data set: TRPV1 modulation in DRG neurones: CGRP release in absence and presence of capsaicin (Assay 2). Format: cell-based. The arrangement: The culture used for this experiment contained sensory neurones, Schwann cells and fibroblasts; endogenous in cells; host or cells: primary rat DRG sensory neurone culture (with Schwann cells and fibroblasts). The following applies: 20 min; for inhibition at 3 µM: 3 μM with capsaicin 1 μM; for inhibition at 3 µM / inhibition at 30 µM: −ve: inhibition, +ve: potentiation of capsaicin response, read-out: Effect of test compounds on capsaicin (1 μM)-induced CGRP release (%); for inhibition at 30 µM: 30 μM with capsaicin 1 μM; for Emax at 3 µM: test compound alone 3 μM; for Emax at 3 µM / Emax at 30 µM: rat DRG sensory neurones, read-out: CGRP release (% of capsaicin (1 μM) response); for Emax at 30 µM: test compound alone 30 μM.

Take `COc1cc(/C=C/C(=O)CC(=O)C(C)C)ccc1O` [Compound 33, (E)-1-(4-Hydroxy-3-methoxyphenyl)-6-methyl-hept-1-ene-3,5-dione]: the Emax at TRPV1 receptor [1] was -12%.

Turning to `COc1cc(/C=C/C(=O)CC(=O)C2(C)CC2)ccc1O` [Compound 38, (E)-5-(4-Hydroxy-3-methoxylphenyl)-1-(1-methylcyclopropyl)-pent-4-ene-1,3-dione], the melting point – broadly, the temperature, or range, at which the solid turns liquid – was in the range of 78 to 80 °C. For the same compound, the Emax at TRPV1 receptor [1] is -36%.

Take `COc1cc(/C=C/C(=O)C(C)C(=O)c2ccccc2)ccc1O` (centres unmarked) [Compound 43, (E)-5-(4-Hydroxy-3-methoxyphenyl)-2-methyl-1-phenyl-pent-4-ene-1,3-dione]: on TRPV1 receptor [1], the Emax was -13%.

For `COc1cc(CCC(=O)CC(=O)C2(C)CCCCC2)ccc1O` [Compound 10, 5-(4-Hydroxy-3-methoxy-phenyl)-1-(1-methyl-cyclohexyl)-pentane-1,3-dione], at TRPV1 receptor [1], the Emax was found to be 16%.

Compound `COc1cc(/C=C/C(=O)CC(=O)CC(C)(C)C)ccc1O` [Compound 35, (E)-7,7-Dimethyl-1-(4-hydroxy-3-methoxyphenyl)-oct-1-ene-3,5-dione] yielded a melting point of 130 to 132 °C. For the same compound, the Emax on TRPV1 receptor [1] came out at 25%.

Take `COc1cc(/C=C/C(=O)CC(=O)C2(C)CCCCC2)ccc1O` [Compound 42, (E)-5-(4-Hydroxy-3-methoxyphenyl)-1-(1-methylcyclohexyl)-pent-4-ene-1,3-dione]: at TRPV1 receptor [1], the Emax was found to be 6%.

As for `COc1cc(/C=C/C(=O)CC(=O)C2CCCC2)ccc1O` [Compound 40, (E)-1-Cyclopentyl-5-(4-hydroxy-3-methoxyphenyl)-pent-4-ene-1,3-dione], on TRPV1 receptor [1], the Emax was -82%.

Take `COc1cc(CCC(=O)CC(=O)C2CCCC2)ccc1O` [Compound 8, 1-Cyclopentyl-5-(4-hydroxy-3-methoxyphenyl)-pentane-1,3-dione]: the Emax at TRPV1 receptor [1] is 36%.

As for `COc1cc(CCC(=O)CC(=O)CC(C)(C)C)ccc1O` [Compound 3, 7,7-Dimethyl-1-(4-hydroxy-3-methoxyphenyl)-octane-3,5-dione], the Emax at TRPV1 receptor [1] is 63%.

Take `COc1cc(CCC(=O)CC(=O)c2ccc3ccccc3c2)ccc1O` [Compound 26, 5-(4-Hydroxy-3-methoxyphenyl)-1-(naphthalene-2-yl)-pentane-1,3-dione]: the melting point lay within 101 to 102 °C. Further, in [2], the inhibition at 3 µM came out at 3% and the inhibition at 30 µM came to 34%. In data set [3], the inhibition at 3 µM is 7% and the inhibition at 30 µM worked out at 40%. In [4], the inhibition at 3 µM is 2% and the inhibition at 30 µM came to 64%. In addition, in data set [5], the inhibition at 3 µM stood at 81% and the inhibition at 30 µM stood at 100%. In the data set with WI-38 cells (3 μM), the “Decrease in cell viability (%)” value worked out at 3%. Besides, the “Decrease in cell viability (%)” value with WI-38 cells (30 μM) is on record as 10%. Moreover, at 5-lipoxygenase, the inhibition at 3 µM amounted to 60% and the inhibition at 30 µM stood at 98%. Moreover, on TRPV1 receptor [6], the inhibition at 3 µM turned out to be 47%, the inhibition at 30 µM was -31%, the Emax at 3 µM came out at 66% and the Emax at 30 µM came to 248%.

`COc1cc(/C=C/C(=O)CC(=O)c2ccccc2)ccc1O` [Compound 68, (E)-5-(4-Hydroxy-3-methoxyphenyl)-1-phenyl-pent-4-ene-1,3-dione]: the melting point is 159 to 161.5 °C. Moreover, on TRPV1 receptor [1], the Emax was found to be 14%.

`COc1cc(CCC(=O)CC(=O)c2ccc(-c3ccccc3)cc2)ccc1O` [Compound 18, 1-(Biphenyl-4-yl)-5-(4-hydroxy-3-methoxyphenyl)-pentane-1,3-dione]: the melting point is 118 to 119 °C. Moreover, in data set [2], the inhibition at 3 µM was 0% and the inhibition at 30 µM was found to be 7%. For the same compound, in data set [3], the inhibition at 3 µM came out at 0% and the inhibition at 30 µM is 3%. Besides, in data set [4], the inhibition at 3 µM was found to be 13% and the inhibition at 30 µM stood at 79%. For the same compound, in [5], the inhibition at 3 µM stood at 86% and the inhibition at 30 µM turned out to be 99%. The “Decrease in cell viability (%)” value with WI-38 cells (3 μM) is 3%. The “Decrease in cell viability (%)” value in the data set with WI-38 cells (30 μM) is on record as 15%. In addition, at 5-lipoxygenase, the inhibition at 3 µM was 58% and the inhibition at 30 µM came to 94%. Further, at TRPV1 receptor [6], the inhibition at 3 µM is 10%, the inhibition at 30 µM is -12%, the Emax at 3 µM was 146% and the Emax at 30 µM was 146%.

`COc1cc(/C=C/C(=O)CC(=O)C(C)(C)C)ccc1O` [Compound 34, (E)-1-(4-Hydroxy-3-methoxylphenyl)-6,6-dimethyl-hept-1-ene-3,5-dione]: the Emax on TRPV1 receptor [1] is -15%. In addition, the inhibition at 3 µM in data set [2] turned out to be 11%; in data set [3] it was 2%; in data set [5], 72%. Further, the inhibition at 30 µM is 22% in data set [2], 43% in data set [3] and 109% in data set [5]. For the same compound, the “Decrease in cell viability (%)” value with WI-38 cells (3 μM) is on record as 3%; with WI-38 cells (30 μM), 5%.
